The experiment deals with α-glucosidase. Nature of the experiment: p-nitrophenyl glycoside hydrolysis assay, absorbance at […] nm. The class given is biochemical.
A word on the IC50: it is the point on the concentration scale where inhibition reaches its midpoint. Lower therefore signals greater potency. In turn, `C=C[C@@]1(C)C[C@@H](O)C2=C(C(=O)[C@@]3(O)OC[C@@]24CCCC(C)(C)[C@@]43O)[C@H]1OC` [compound 1, Isopimarane diterpene (1)] came in with a 50% inhibitory concentration (IC50) of 4.6 ± 0.1 µM.
Turning to `C=C[C@]1(C)C=C2[C@@H](O)[C@@]3(O)OC[C@@]4(CCCC(C)(C)[C@@]43O)[C@@]2(O)CC1` [compound 2, 11-deoxydiaporthein A], it took 11.9 ± 0.4 µM to reach half-maximal inhibition (IC50). This IC50 is about 2.6-fold higher than that of the compound before.
In turn, `Oc1ccc(/C=C/c2cc(O)cc(O)c2)cc1` [Resveratrol, reference compound] showed an IC50 of 31.2 ± 4.4 µM.
